# Measured values: US7816522B2, “Triazolone derivatives” (Eisai Co., Ltd., priority 2006, dated 2010)
# Where a name gives a salt, the structure may show the parent alone.
# Target: T1, human clotting factor VIIa (Homo sapiens, UniProt P08709)
# T1 construct: a human clotting factor VIIa (hereinafter, “Factor VIIa”) purified sample; purchased Enzyme Research Laboratories HFVIIa
# Experiment: Inhibitory activity against clotting factor VIIa (chromogenic substrate Spectrozyme FVIIa, TF/Factor VIIa enzyme solution)
# Assay type: biochemical
# Conditions: human Factor VIIa 5 nmol/L with human TF 10 nmol/L, room temperature 40 minutes, 405 nm
# Method in brief: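 Human Factor VIIa (5 nmol/L) with human TF (10 nmol/L) in Tris-BSA buffer pH 7.4 containing 15 mmol/L CaCl2 and cephalin, with Spectrozyme FVIIa substrate. Reaction 40 min at room temperature; 4-nitroanilide read at 405 nm. IC50 by non-linear regression over 100 μmol/L–0.1 nmol/L.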
# T1 sequence (P08709 213-466 limits assumed): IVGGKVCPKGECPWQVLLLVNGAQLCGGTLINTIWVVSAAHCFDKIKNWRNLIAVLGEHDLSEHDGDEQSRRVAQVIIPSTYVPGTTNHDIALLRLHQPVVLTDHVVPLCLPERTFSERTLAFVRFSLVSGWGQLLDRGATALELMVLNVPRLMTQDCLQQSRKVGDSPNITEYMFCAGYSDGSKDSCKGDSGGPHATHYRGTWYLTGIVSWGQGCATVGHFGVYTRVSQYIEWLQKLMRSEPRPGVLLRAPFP
# T1 sequence (P08709 61-212 limits assumed): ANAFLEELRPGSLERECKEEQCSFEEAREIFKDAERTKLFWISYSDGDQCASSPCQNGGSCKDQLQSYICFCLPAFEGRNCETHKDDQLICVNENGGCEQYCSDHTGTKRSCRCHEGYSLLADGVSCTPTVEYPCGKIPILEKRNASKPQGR
# T1 sequence (P13726 33-295 partner): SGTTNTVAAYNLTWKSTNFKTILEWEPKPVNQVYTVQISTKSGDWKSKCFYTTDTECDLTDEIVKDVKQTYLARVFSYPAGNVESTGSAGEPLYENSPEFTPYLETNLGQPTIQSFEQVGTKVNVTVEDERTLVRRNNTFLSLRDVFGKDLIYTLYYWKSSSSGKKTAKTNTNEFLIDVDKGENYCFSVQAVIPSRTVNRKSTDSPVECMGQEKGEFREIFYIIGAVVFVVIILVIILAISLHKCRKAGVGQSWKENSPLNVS
row,SMILES,IC50 [nM]
1,"COc1cc(OC2CCOCC2)cc(C(Nc2ccc(C(=N)N)cc2)c2nn(-c3ncccn3)c(=O)[nH]2)c1 (racemic) [Example 63, (R) and (S)-4-({[3-methoxy-5-(tetrahydropyran-4-yloxy)phenyl]-(5-oxo-1-pyrimidin-2-yl-4,5-dihydro-1H-[1,2,4]triazol-3-yl)methyl}amino)benzamidine acetate]",3.9
2,"CCOc1cc(OC)cc(C(Nc2ccc(C(=N)N)cc2)c2nn(-c3cccnn3)c(=O)[nH]2)c1 (racemic) [Example 65, (R) and (S)-4-{[(3-ethoxy-5-methoxyphenyl)-(5-oxo-1-pyridazin-3-yl-4,5-dihydro-1H-[1,2,4]triazol-3-yl)methyl]amino}benzamidine acetate]",5.3
3,"CCOc1cc(OCCF)c(F)c(C(Nc2ccc(C(=N)N)cc2)c2nn(-c3ncccn3)c(=O)[nH]2)c1 (racemic) [Example 68, (R) and (S)-4-({[2-fluoro-3-(2-fluoroethoxy)-5-ethoxyphenyl]-(5-oxo-1-pyrimidin-2-yl-4,5-dihydro-1H-[1,2,4]triazol-3-yl)methyl}amino)benzamidine acetate]",6.7
4,"CCOc1cc(OC)c(F)c(C(Nc2ccc(C(=N)N)cc2)c2nn(-c3ncccn3)c(=O)[nH]2)c1 (racemic) [Example 69, (R) and (S)-4-{[(5-ethoxy-2-fluoro-3-methoxyphenyl)-(5-oxo-1-pyrimidin-2-yl-4,5-dihydro-1H-[1,2,4]triazol-3-yl)methyl]amino}benzamidine acetate]",15.1
5,"COc1cc(COCCF)cc(C(Nc2ccc(C(=N)N)cc2)c2nn(-c3ncccn3)c(=O)[nH]2)c1 (racemic) [Example 72, (R) and (S)-4-({[3-(2-fluoroethoxymethyl)-5-methoxyphenyl]-(5-oxo-1-pyrimidin-2-yl-4,5-dihydro-1H-[1,2,4]triazol-3-yl)methyl}amino)benzamidine acetate]",10
6,"CCc1cc(OC)cc(C(Nc2ccc(C(=N)N)cc2)c2nn(-c3ncccn3)c(=O)[nH]2)c1 (racemic) [Example 75, (R) and (S)-4-{[(3-ethyl-5-methoxyphenyl)-(5-oxo-1-pyrimidin-2-yl-4,5-dihydro-1H-[1,2,4]triazol-3-yl)methyl]amino}benzamidine acetate]",5.2
7,"CCc1cc(OCCOC)cc(C(Nc2ccc(C(=N)N)cc2)c2nn(-c3ncccn3)c(=O)[nH]2)c1 (racemic) [Example 76, (R) and (S)-4-({[3-ethyl-5-(2-methoxyethoxy)phenyl]-(5-oxo-1-pyrimidin-2-yl-4,5-dihydro-1H-[1,2,4]triazol-3-yl)methyl}amino)benzamidine trifluoroacetate]",5.2
8,"CCOc1cc(OCCF)cc(C(Nc2ccc(C(=N)N)cc2)c2nn(-c3ncccn3)c(=O)[nH]2)c1 (racemic) [Example 78, (R) and (S)-4-({[3-ethoxy-5-(2-fluoroethoxy)phenyl]-(5-oxo-1-pyrimidin-2-yl-4,5-dihydro-1H-[1,2,4]triazol-3-yl)methyl}amino)benzamidine trifluoroacetate]",12.5
9,"CCOc1cc(OCC)cc(C(Nc2ccc(C(=N)N)cc2)c2nn(-c3ncccn3)c(=O)[nH]2)c1 (racemic) [Example 79, (R) and (S)-4-{[(3,5-diethoxyphenyl)-(5-oxo-1-pyrimidin-2-yl-4,5-dihydro-1H-[1,2,4]triazol-3-yl)methyl]amino}benzamidine trifluoroacetate]",7.6
10,"CCOc1cc(OCCF)cc(C(Nc2ccc(C(=N)N)cc2)c2nn(-c3cccnn3)c(=O)[nH]2)c1 (racemic) [Example 80, (R) and (S)-4-({[3-ethoxy-5-(2-fluoroethoxy)phenyl]-(5-oxo-1-pyridazin-3-yl-4,5-dihydro-1H-[1,2,4]triazol-3-yl)methyl}amino)benzamidine acetate]",6.8
11,"COc1cc(C(Nc2ccc(C(=N)N)cc2)c2nn(-c3ncccn3)c(=O)[nH]2)ccc1OCCF (racemic) [Example 81, (R) and (S)-4-({[4-(2-fluoroethoxy)-3-methoxyphenyl]-(5-oxo-1-pyrimidin-2-yl-4,5-dihydro-1H-[1,2,4]triazol-3-yl)methyl}amino)benzamidine acetate]",18.6
12,"COc1cc(C(Nc2ccc(C(=N)N)cc2)c2nn(-c3ncccn3)c(=O)[nH]2)cc2c1OCC2OC (racemic) [Example 82, (R) and (S)-4-({(3,7-dimethoxy-2,3-dihydrobenzofuran-5-yl)-(5-oxo-1-pyrimidin-2-yl-4,5-dihydro-1H-[1,2,4]triazol-3-yl)methyl}amino)benzamidine acetate]",7.5
13,"COc1cc(C(Nc2ccc(C(=N)N)cc2)c2nn(-c3cccnn3)c(=O)[nH]2)cc(OC)c1OC (racemic) [Example 88, 4-{[(R) and (S)-(5-oxo-1-pyridazin-3-yl-4,5-dihydro-1H-[1,2,4]triazol-3-yl)-(3,4,5-trimethoxyphenyl)methyl]amino}benzamidine trifluoroacetate]",8.5
14,"COc1cc(C(Nc2ccc(C(=N)N)cc2)c2nn(-c3cccnn3)c(=O)[nH]2)cc(OCCF)c1OC (racemic) [Example 89, 4-{[(R) and (S)-[3-(2-fluoroethoxy)-4,5-dimethoxyphenyl]-(5-oxo-1-pyridazin-3-yl-4,5-dihydro-1H-[1,2,4]triazol-3-yl)methyl]amino}benzamidine acetate]",9.2
15,"COCCOc1cc(OC)cc(C(Nc2ccc(C(=N)N)cc2)c2nn(-c3ncccn3)c(=O)[nH]2)c1F (racemic) [Example 92, 4-{[(R) and (S)-[2-fluoro-5-methoxy-3-(2-methoxyethoxy)phenyl]-(5-oxo-1-pyrimidin-2-yl-4,5-dihydro-1H-[1,2,4]triazol-3-yl)methyl]amino}benzamidine acetate]",11.6

# Now from value to compound:
row,IC50 [nM],SMILES
1,24.4,"COc1cc(OCC(=O)N(C)C)cc(C(Nc2ccc(C(=N)N)cc2)c2nn(-c3ncccn3)c(=O)[nH]2)c1 (racemic) [Example 62, (R) and (S)-2-{3-[(4-carbamimidoylphenylamino)-(5-oxo-1-pyrimidin-2-yl-4,5-dihydro-1H-[1,2,4]triazol-3-yl)methyl]-5-methoxyphenoxy}-N,N-dimethylacetamide acetate]"
2,4.2,"COc1cc(OCCF)cc(C(Nc2ccc(C(=N)N)cc2)c2nn(-c3cccnn3)c(=O)[nH]2)c1 (racemic) [Example 64, (R) and (S)-4-({[3-(2-fluoroethoxy)-5-methoxyphenyl]-(5-oxo-1-pyridazin-3-yl-4,5-dihydro-1H-[1,2,4]triazol-3-yl)methyl}amino)benzamidine acetate]"
3,7.9,"COc1cc(OC)c(F)c(C(Nc2ccc(C(=N)N)cc2)c2nn(-c3ncccn3)c(=O)[nH]2)c1 (racemic) [Example 66, (R) and (S)-4-{[(2-fluoro-3,5-dimethoxyphenyl)-(5-oxo-1-pyrimidin-2-yl-4,5-dihydro-1H-[1,2,4]triazol-3-yl)methyl]amino}benzamidine acetate]"
4,4.5,"COc1cc(C(Nc2ccc(C(=N)N)cc2)c2nn(-c3ncccn3)c(=O)[nH]2)c(F)c(OC)c1OC (racemic) [Example 67, (R) and (S)-4-{[(2-fluoro-3,4,5-trimethoxyphenyl)-(5-oxo-1-pyrimidin-2-yl-4,5-dihydro-1H-[1,2,4]triazol-3-yl)methyl]amino}benzamidine acetate]"
5,4.9,"CCOc1cc(OCCF)c(F)c(C(Nc2ccc(C(=N)N)cc2)c2nn(-c3cccnn3)c(=O)[nH]2)c1 (racemic) [Example 70, 4-({(R) and (S)-[5-ethoxy-2-fluoro-3-(2-fluoroethoxy)phenyl]-(5-oxo-1-pyridazin-3-yl-4,5-dihydro-1H-[1,2,4]triazol-3-yl)methyl}amino)benzamidine acetate]"
6,7.7,"CCOc1cc(OC)c(F)c(C(Nc2ccc(C(=N)N)cc2)c2nn(-c3cccnn3)c(=O)[nH]2)c1 (racemic) [Example 71, (R) and (S)-4-{[(5-ethoxy-2-fluoro-3-methoxyphenyl)-(5-oxo-1-pyridazin-3-yl-4,5-dihydro-1H-[1,2,4]triazol-3-yl)methyl]amino}benzamidine acetate]"
7,11.2,"COCc1cc(OC)cc(C(Nc2ccc(C(=N)N)cc2)c2nn(-c3cccnn3)c(=O)[nH]2)c1 (racemic) [Example 73, (R) and (S)-4-{[(3-methoxy-5-methoxymethylphenyl)-(5-oxo-1-pyridazin-3-yl-4,5-dihydro-1H-[1,2,4]triazol-3-yl)methyl]amino}benzamidine trifluoroacetate]"
8,3.3,"CCc1cc(OCCF)cc(C(Nc2ccc(C(=N)N)cc2)c2nn(-c3ncccn3)c(=O)[nH]2)c1 (racemic) [Example 74, (R) and (S)-4-({[3-ethyl-5-(2-fluoroethoxy)phenyl]-(5-oxo-1-pyrimidin-2-yl-4,5-dihydro-1H-[1,2,4]triazol-3-yl)methyl}amino)benzamidine acetate]"
9,15.3,"C=CCOc1cc(COC)cc(C(Nc2ccc(C(=N)N)cc2)c2nn(-c3ncccn3)c(=O)[nH]2)c1 (racemic) [Example 85, 4-{[(R) and (S)-(3-allyloxy-5-methoxymethylphenyl)-(5-oxo-1-pyrimidin-2-yl-4,5-dihydro-1H-[1,2,4]triazol-3-yl)methyl]amino}benzamidine acetate]"
10,30.3,"COc1cc(C)cc(C(Nc2ccc(C(=N)N)cc2)c2nn(-c3ncccn3)c(=O)[nH]2)c1 (racemic) [Example 93, 4-{[(R) and (S)-(3-methoxy-5-methylphenyl)-(5-oxo-1-pyrimidin-2-yl-4,5-dihydro-1H-[1,2,4]triazol-3-yl)methyl]amino}benzamidine acetate]"
11,12.7,"COCCOc1cc(C)cc(C(Nc2ccc(C(=N)N)cc2)c2nn(-c3ncccn3)c(=O)[nH]2)c1 (racemic) [Example 94, 4-{[(R) and (S)-[3-(2-methoxyethoxy)-5-methylphenyl]-(5-oxo-1-pyrimidin-2-yl-4,5-dihydro-1H-[1,2,4]triazol-3-yl)methyl]amino}benzamidine acetate]"
